Here are results for four molecules from patent US20050276762A1, “Topical compositions containing 5'-adenosine-diphosphate ribose” (priority 2004, published 2005).

For one series, the system named is Human A549 cells. The following applies: for cytoprotection against H2O2 (in words): same concentration as ADP-ribose (25 or 50 μg/ml).
For series [1], the target named is poly (ADP-ribose) polymerase (PARP) (Homo sapiens, UniProt P09874). As to the kind of experiment: PARP assay (in vitro PARP inhibition). It counts as biochemical. The following applies: same concentration as ADP-ribose (4 to 10 mM); FIG. 2. Here is the method: 1. […] 2. Cover the plate with an adhesive plate sealer and incubate for 2 hours at room temperature (or overnight at 2-8° C.). 1. […] After the last wash, remove any remaining PBS by decanting. Invert the plate and blot it against clean paper toweling. Note, at this time plates can be air dried and stored covered at room temperature for later use. 2. Block the wells by adding 50 μL of Strep Diluent to each well. 3. Cover the plate with an adhesive plate sealer and incubate for 1 hour at room temperature (or overnight at 2-8° C.). […] PARP will autoribosylate in the presence of NAD. 1. […] After the last wash, remove any remaining PBS by decanting. Invert the plate and blot it against clean paper toweling. 2. […] 3. Add inhibitor of interest. The final reaction volume is 50 μL/well. […] Enzyme is added last. • For 24 wells: Make for 20=2×0.5 units=10 units • 20 wells×5 μL=100 μL 10 μL enzyme+90 μl of 1× PARP buffer […] 5. Incubate the plate for 30 minutes at room temperature. The extent of ribosylation is time dependant; therefore this step can be extended if desired. 1. […] After the last wash, remove any remaining PBS by decanting. Invert the plate and blot it against clean paper toweling. 2. Dilute Strep-HRP • Dilute 1:500 • For 20 wells=1,100 μL Strep diluent+2.2 μL Strep-HRP • Add 50 μL of diluted Strep-HRP to each well. 3. Incubate for 30 minutes at 37° C. […] After the last wash, remove any remaining PBS by decanting. Invert the plate and blot it against clean paper toweling. 5. Add 50 μL TACS-Sapphire dye to each well. Incubate for 10 minutes in the dark.
Chain of poly (ADP-ribose) polymerase (PARP) (P09874 whole entry): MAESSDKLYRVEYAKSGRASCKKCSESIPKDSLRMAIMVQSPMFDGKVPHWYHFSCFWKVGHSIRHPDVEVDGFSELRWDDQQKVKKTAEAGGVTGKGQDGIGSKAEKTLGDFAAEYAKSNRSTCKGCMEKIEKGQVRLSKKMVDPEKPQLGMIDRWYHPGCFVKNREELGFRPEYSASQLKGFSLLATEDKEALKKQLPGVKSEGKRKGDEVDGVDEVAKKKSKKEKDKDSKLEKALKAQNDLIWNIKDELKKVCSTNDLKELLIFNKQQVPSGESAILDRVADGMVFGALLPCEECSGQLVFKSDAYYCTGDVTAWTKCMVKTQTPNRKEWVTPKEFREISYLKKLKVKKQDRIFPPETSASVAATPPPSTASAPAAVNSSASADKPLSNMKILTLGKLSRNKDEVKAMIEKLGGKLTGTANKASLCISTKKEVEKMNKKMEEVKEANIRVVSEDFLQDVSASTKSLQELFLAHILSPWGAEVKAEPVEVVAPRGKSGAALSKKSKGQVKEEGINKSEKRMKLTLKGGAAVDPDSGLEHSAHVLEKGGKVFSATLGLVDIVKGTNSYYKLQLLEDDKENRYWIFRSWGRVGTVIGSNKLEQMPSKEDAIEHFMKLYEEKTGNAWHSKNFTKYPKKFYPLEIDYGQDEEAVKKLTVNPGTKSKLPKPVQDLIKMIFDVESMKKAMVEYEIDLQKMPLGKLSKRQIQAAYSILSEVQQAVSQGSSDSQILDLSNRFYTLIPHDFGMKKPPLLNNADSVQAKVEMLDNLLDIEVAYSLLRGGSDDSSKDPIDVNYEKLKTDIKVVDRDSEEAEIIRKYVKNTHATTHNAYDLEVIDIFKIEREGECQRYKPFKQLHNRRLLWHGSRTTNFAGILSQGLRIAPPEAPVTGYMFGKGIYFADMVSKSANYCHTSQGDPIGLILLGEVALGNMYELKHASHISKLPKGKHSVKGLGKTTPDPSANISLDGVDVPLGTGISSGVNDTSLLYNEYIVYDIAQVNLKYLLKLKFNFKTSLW

As to `Nc1ncnc2c1ncn2[C@@H]1O[C@H](COP(=O)(O)O)[C@@H](O)[C@H]1O` [AMP], the “cytoprotection against H2O2 (in words)” value in the series on Human A549 cells was “cytoprotection was specific to ADP-ribose”. In addition, the “inhibition of PARP activity (in words)” value in series [1] is “unable to inhibit PARP activity”.
As for `N=c1c2ncn3c2ncn1[C@@H]1O[C@H](COP(=O)(O)OP(=O)(O)OC[C@H]2O[C@@H]3[C@H](O)[C@@H]2O)[C@@H](O)[C@H]1O` [cADP-ribose], the “protection of cells from cytotoxicity mediated cell death (in words)” value in the series on Human A549 cells was “unable to protect cells from cytotoxicity mediated cell death”.
As for `Nc1ncnc2c1ncn2[C@@H]1O[C@H](CO)[C@@H](O)[C@H]1O` [adenosine], the “cytoprotection against H2O2 (in words)” value in the series with Human A549 cells is “cytoprotection was specific to ADP-ribose”. Further, the “inhibition of PARP activity (in words)” value in series [1] is listed as “unable to inhibit PARP activity”.
Regarding `Nc1ncnc2c1ncn2[C@@H]1O[C@H](COP(=O)(O)OP(=O)(O)O[C@H]2O[C@H](CO)[C@@H](O)[C@H](O)[C@H]2O)[C@@H](O)[C@H]1O` [ADP-glucose], in the series with Human A549 cells, the “protection from H2O2 cytotoxicity” value was around 25% and the “cytoprotection against H2O2 (in words)” value is reported as “cytoprotection was specific to ADP-ribose”. In series [1], the “inhibition of PARP activity (in words)” value is given as “unable to inhibit PARP activity”.
